Reference: patent US20230382895A1, “CRYSTALLINE FORM III OF MELANOCORTIN RECEPTOR AGONIST COMPOUND AND PREPARATION METHOD THEREFOR” (LG CHEM, LTD., priority 2020, published 2023)
Entries after “also recorded” stand apart in the source; their conditions may differ. Structures can show the parent of a compound that is named as a salt.

Experiment: Stability assessment by HPLC after storage under accelerated (40° C., 75% RH, open) or harsh (80° C., sealed) condition
Type: physicochemical
Details: for Stability (HPLC), Open AOC: open state, accelerated condition (40° C., 75% RH); for Stability (HPLC), Closed STR: sealed state, harsh condition, oven at 80° C.
Method: About 10-30 mg of the sample was stored for 4 weeks in an open state under the accelerated condition (40° C., 75% RH) or in a sealed state under the harsh condition in an oven at 80° C. [table]

CC(C)C(=O)N([C@H]1C[C@@H](C(=O)N2CCOCC2)N(C(=O)[C@@H]2CN(C(C)(C)C)C[C@H]2c2ccc(Cl)cc2)C1)[C@H]1CC[C@@H](C)CC1 [Example 1, Is7-((3S,5S)-1-((3S,4R)-1-(tert-butyl)-4-(4-chlorophenyl)pyrrolidine-3-carbonyl)-5-(morpholine-4-carbonyl)pyrrolidin-3-yl)-N-((is, 4R)-4-methylcyclohexyl) isobutyramide hydrochloride]
Chemical stability for 4 weeks (4 weeks, accelerated condition (40° C., 75% RH) and harsh condition (80° C.), listed as crystalline form III, hydrochloride): showed chemical stability; also recorded: exhibited chemical stability
Stability (HPLC), Initial (Initial, before storage, in % (unit assumed)): 99.68
Stability (HPLC), Open AOC (Week 2, in % (unit assumed)): 89.27
Stability (HPLC), Closed STR (Week 2, in % (unit assumed)): 99.11
Stability (HPLC), Open AOC (Week 4, in % (unit assumed)): 99.26
Stability (HPLC), Closed STR (Week 4, in % (unit assumed)): 98.76
